From ChEMBL document CHEMBL1153245, “A profile of the in vitro anti-tumor activity of imidazolium-based ionic liquids” (2010)

Legend:
Assay type in all cases: functional
[1] = test system: NCI-H460; assay: Anticancer activity against human NCI-H460 cells assessed cell growth at 10 uM after 48 hrs by sulforhodamine B assay relative to control
[2] = test system: LOX IMVI; assay: Anticancer activity against human LOXIMVI cells assessed cell growth at 10 uM after 48 hrs by sulforhodamine B assay relative to control
[3] = test system: NCI-H226; assay: Anticancer activity against human NCI-H226 cells assessed cell growth at 10 uM after 48 hrs by sulforhodamine B assay relative to control
[4] = test system: HCT-116; assay: Anticancer activity against human HCT116 cells assessed cell growth at 10 uM after 48 hrs by sulforhodamine B assay relative to control
[5] = test system: UACC-257; assay: Anticancer activity against human UACC257 cells assessed cell growth at 10 uM after 48 hrs by sulforhodamine B assay relative to control
[6] = test system: OVCAR-8; assay: Anticancer activity against human OVCAR8 cells assessed cell growth at 10 uM after 48 hrs by sulforhodamine B assay relative to control
[7] = test system: A498; assay: Anticancer activity against human A498 cells assessed cell growth at 10 uM after 48 hrs by sulforhodamine B assay relative to control
[8] = test system: T47D; assay: Anticancer activity against human T47D cells assessed cell growth at 10 uM after 48 hrs by sulforhodamine B assay relative to control
[9] = test system: HCC 2998; assay: Anticancer activity against human HCC2998 cells assessed cell growth at 10 uM after 48 hrs by sulforhodamine B assay relative to control
[10] = test system: SW-620; assay: Anticancer activity against human SW620 cells assessed cell growth at 10 uM after 48 hrs by sulforhodamine B assay relative to control
[11] = test system: CCRF-CEM; assay: Anticancer activity against human CCRF-CEM cells assessed cell growth at 10 uM after 48 hrs by sulforhodamine B assay relative to control
[12] = test system: TK-10; assay: Anticancer activity against human TK10 cells assessed cell growth at 10 uM after 48 hrs by sulforhodamine B assay relative to control
[13] = test system: SK-MEL-5; assay: Anticancer activity against human SK-MEL-5 cells assessed cell growth at 10 uM after 48 hrs by sulforhodamine B assay relative to control
[14] = test system: OVCAR-4; assay: Anticancer activity against human OVCAR4 cells assessed cell growth at 10 uM after 48 hrs by sulforhodamine B assay relative to control
[15] = test system: SF-539; assay: Anticancer activity against human SF539 cells assessed cell growth at 10 uM after 48 hrs by sulforhodamine B assay relative to control
[16] = test system: HOP-92; assay: Anticancer activity against human HOP92 cells assessed cell growth at 10 uM after 48 hrs by sulforhodamine B assay relative to control
[17] = test system: UACC-62; assay: Anticancer activity against human UACC62 cells assessed cell growth at 10 uM after 48 hrs by sulforhodamine B assay relative to control
[18] = test system: IGROV-1; assay: Anticancer activity against human IGROV1 cells assessed cell growth at 10 uM after 48 hrs by sulforhodamine B assay relative to control
[19] = test system: SK-MEL-2; assay: Anticancer activity against human SK-MEL-2 cells assessed cell growth at 10 uM after 48 hrs by sulforhodamine B assay relative to control
[20] = test system: ACHN; assay: Anticancer activity against human ACHN cells assessed cell growth at 10 uM after 48 hrs by sulforhodamine B assay relative to control
[21] = test system: MDA-MB-435; assay: Anticancer activity against human MDA-MB-435 cells assessed cell growth at 10 uM after 48 hrs by sulforhodamine B assay relative to control
[22] = test system: MCF7; assay: Anticancer activity against human MCF7 cells assessed cell growth at 10 uM after 48 hrs by sulforhodamine B assay relative to control
[23] = Anticancer activity against human RPMI8266 cells assessed cell growth at 10 uM after 48 hrs by sulforhodamine B assay relative to control
[24] = test system: HCT-15; assay: Anticancer activity against human HCT15 cells assessed cell growth at 10 uM after 48 hrs by sulforhodamine B assay relative to control
[25] = test system: NCI-H522; assay: Anticancer activity against human NCI-H522 cells assessed cell growth at 10 uM after 48 hrs by sulforhodamine B assay relative to control
[26] = test system: HL-60(TB); assay: Anticancer activity against human HL-60(TB) cells assessed cell growth at 10 uM after 48 hrs by sulforhodamine B assay relative to control
[27] = test system: RXF 393; assay: Anticancer activity against human RXF393 cells assessed cell growth at 10 uM after 48 hrs by sulforhodamine B assay relative to control
[28] = test system: DU-145; assay: Anticancer activity against human DU145 cells assessed cell growth at 10 uM after 48 hrs by sulforhodamine B assay relative to control
[29] = test system: NCI/ADR-RES; assay: Anticancer activity against human NCI/ADR-RES cells assessed cell growth at 10 uM after 48 hrs by sulforhodamine B assay relative to control
[30] = test system: SNB-19; assay: Anticancer activity against human SNB19 cells assessed cell growth at 10 uM after 48 hrs by sulforhodamine B assay relative to control
[31] = test system: MDA-MB-231; assay: Anticancer activity against human MDA-MB-231 cells assessed cell growth at 10 uM after 48 hrs by sulforhodamine B assay relative to control
[32] = test system: SF-295; assay: Anticancer activity against human SF295 cells assessed cell growth at 10 uM after 48 hrs by sulforhodamine B assay relative to control
[33] = test system: M14; assay: Anticancer activity against human M14 cells assessed cell growth at 10 uM after 48 hrs by sulforhodamine B assay relative to control
[34] = test system: OVCAR-3; assay: Anticancer activity against human OVCAR-3 cells assessed cell growth at 10 uM after 48 hrs by sulforhodamine B assay relative to control
[35] = test system: NCI-H322M; assay: Anticancer activity against human NCI-H322M cells assessed cell growth at 10 uM after 48 hrs by sulforhodamine B assay relative to control
[36] = test system: K562; assay: Anticancer activity against human K562 cells assessed cell growth at 10 uM after 48 hrs by sulforhodamine B assay relative to control
[37] = test system: HOP-62; assay: Anticancer activity against human HOP62 cells assessed cell growth at 10 uM after 48 hrs by sulforhodamine B assay relative to control
[38] = test system: CAKI-1; assay: Anticancer activity against human Caki1 cells assessed cell growth at 10 uM after 48 hrs by sulforhodamine B assay relative to control
[39] = test system: MDA-MB-468; assay: Anticancer activity against human MDA-MB-468 cells assessed cell growth at 10 uM after 48 hrs by sulforhodamine B assay relative to control
[40] = test system: Malme-3M; assay: Anticancer activity against human MALME-3M cells assessed cell growth at 10 uM after 48 hrs by sulforhodamine B assay relative to control
[41] = test system: BT-549; assay: Anticancer activity against human BT549 cells assessed cell growth at 10 uM after 48 hrs by sulforhodamine B assay relative to control
[42] = test system: SK-MEL-28; assay: Anticancer activity against human SK-MEL-28 cells assessed cell growth at 10 uM after 48 hrs by sulforhodamine B assay relative to control
[43] = test system: SNB-75; assay: Anticancer activity against human SNB75 cells assessed cell growth at 10 uM after 48 hrs by sulforhodamine B assay relative to control

SMILES: CCCCCCCC[n+]1ccn(C)c1.[Cl-]
- Activity [1]: 101.53%
- Activity [2]: 71.93%
- Activity [3]: 75.79%
- Activity [4]: 62.3%
- Activity [5]: 83.24%
- Activity [6]: 77.68%
- Activity [7]: 101.4%
- Activity [8]: 87.08%
- Activity [9]: 77.19%
- Activity [10]: 89.37%
- Activity [11]: 121.49%
- Activity [12]: 77.56%
- Activity [13]: 86.81%
- Activity [14]: 61.98%
- Activity [15]: 71.01%
- Activity [16]: 106.43%
- Activity [17]: 81.12%
- Activity [18]: 96.33%
- Activity [19]: 85.11%
- Activity [20]: 75.93%
- Activity [21]: 70.46%
- Activity [22]: 79.81%
- Activity [23]: 122.18%
- Activity [24]: 111.4%
- Activity [25]: 72.78%
- Activity [26]: 94.06%
- Activity [27]: 78.03%
- Activity [28]: 99.82%
- Activity [29]: 95.09%
- Activity [30]: 91.91%
- Activity [31]: 74.81%
- Activity [32]: 101.39%
- Activity [33]: 87.47%
- Activity [34]: 81.96%
- Activity [35]: 95.53%
- Activity [36]: 63.96%
- Activity [37]: 90.78%
- Activity [38]: 66.65%
- Activity [39]: 46.81%
- Activity [40]: 80.97%
- Activity [41]: 81.23%
- Activity [42]: 120.13%
- Activity [43]: 83.9%

SMILES: CCCCCCCC[n+]1ccn(C)c1.F[P-](F)(F)(F)(F)F
- Activity [1]: 92.86%
- Activity [2]: 70.03%
- Activity [3]: 72.91%
- Activity [4]: 56.26%
- Activity [5]: 72.49%
- Activity [6]: 78.96%
- Activity [7]: 85.75%
- Activity [8]: 73.53%
- Activity [9]: 75.73%
- Activity [10]: 73.41%
- Activity [11]: 84.88%
- Activity [12]: 57.87%
- Activity [13]: 76.82%
- Activity [14]: 52.01%
- Activity [15]: 67.02%
- Activity [16]: 96.72%
- Activity [17]: 90.01%
- Activity [18]: 76.25%
- Activity [19]: 83.03%
- Activity [20]: 67.29%
- Activity [21]: 52.08%
- Activity [22]: 69.15%
- Activity [23]: 135.51%
- Activity [24]: 97.27%
- Activity [25]: 65.58%
- Activity [26]: 91.74%
- Activity [27]: 83.22%
- Activity [28]: 99.58%
- Activity [29]: 97.14%
- Activity [30]: 82.83%
- Activity [31]: 65.53%
- Activity [32]: 79.54%
- Activity [33]: 81.87%
- Activity [34]: 86.51%
- Activity [35]: 89.47%
- Activity [36]: 70.78%
- Activity [37]: 79.02%
- Activity [38]: 56.66%
- Activity [39]: 21%
- Activity [40]: 62.25%
- Activity [41]: 60.35%
- Activity [42]: 95.95%
- Activity [43]: 70.71%

SMILES: CCCCCCCC[n+]1ccn(C)c1.F[B-](F)(F)F
- Activity [1]: 98.66%
- Activity [2]: 72.64%
- Activity [3]: 75.04%
- Activity [4]: 66.53%
- Activity [5]: 87.94%
- Activity [6]: 73.05%
- Activity [7]: 99.32%
- Activity [8]: 75.19%
- Activity [9]: 70.57%
- Activity [10]: 80.56%
- Activity [11]: 45.61%
- Activity [12]: 76.77%
- Activity [13]: 81.77%
- Activity [14]: 66.15%
- Activity [15]: 74.98%
- Activity [16]: 87.53%
- Activity [17]: 90.08%
- Activity [18]: 85.75%
- Activity [19]: 90.35%
- Activity [20]: 70.72%
- Activity [21]: 59.67%
- Activity [22]: 76.87%
- Activity [23]: 64.64%
- Activity [24]: 97.47%
- Activity [25]: 69.23%
- Activity [26]: 64.63%
- Activity [27]: 104.98%
- Activity [28]: 95.55%
- Activity [29]: 91.95%
- Activity [30]: 81.8%
- Activity [31]: 78.93%
- Activity [32]: 78.23%
- Activity [33]: 87.56%
- Activity [34]: 102.92%
- Activity [35]: 101.83%
- Activity [36]: 81.46%
- Activity [37]: 91.23%
- Activity [38]: 60.04%
- Activity [39]: 39.75%
- Activity [40]: 80.13%
- Activity [41]: 64.81%
- Activity [42]: 105.03%
- Activity [43]: 84.84%

SMILES: CCCCCCCCOS(=O)(=O)[O-].CCCCCCCC[n+]1ccn(C)c1
- Activity [1]: 95.98%
- Activity [2]: 68.86%
- Activity [3]: 74.07%
- Activity [4]: 55.91%
- Activity [5]: 78.7%
- Activity [6]: 76.03%
- Activity [7]: 90.58%
- Activity [8]: 80.27%
- Activity [9]: 69.81%
- Activity [10]: 86.25%
- Activity [11]: 97.94%
- Activity [12]: 68.07%
- Activity [13]: 74.87%
- Activity [14]: 60.6%
- Activity [15]: 65.31%
- Activity [16]: 107.58%
- Activity [17]: 85.18%
- Activity [18]: 72.84%
- Activity [19]: 83.39%
- Activity [20]: 67.5%
- Activity [21]: 55.5%
- Activity [22]: 75.57%
- Activity [23]: 116.11%
- Activity [24]: 107.62%
- Activity [25]: 57.44%
- Activity [26]: 82.07%
- Activity [27]: 84%
- Activity [28]: 96.94%
- Activity [29]: 94.1%
- Activity [30]: 82.22%
- Activity [31]: 66.28%
- Activity [32]: 80.68%
- Activity [33]: 84%
- Activity [34]: 81.64%
- Activity [35]: 89.12%
- Activity [36]: 93.71%
- Activity [37]: 90.54%
- Activity [38]: 56.81%
- Activity [39]: 38.15%
- Activity [40]: 80.15%
- Activity [41]: 67.86%
- Activity [42]: 112.15%
- Activity [43]: 84.66%
